Reference: patent publication US9145426B2, “Pyrrolidine-fused thiadiazine dioxide compounds as BACE inhibitors, compositions, and their use” (Merck Sharp & Dohme Corp., priority 2011, dated 2015)

Assays:
[1] = molecular target: soluble human BACE1 catalytic domain (Homo sapiens (Human), UniProt P56817); assay: BACE1 HTRF FRET Assay; assay type: biochemical; details: calculated from IC50 using the Cheng-Prusoff equation; read-out: BACE-1 Ki
Text: Na^+-Acetate pH 5.0; 1% Brij-35; Glycerol; Dimethyl Sulfoxide (DMSO); Recombinant human soluble BACE1 catalytic domain (>95% pure); APP Swedish mutant peptide substrate (QSY7-APP^swe-Eu): QSY7-[…]-Europium-amide.
A homogeneous time-resolved FRET assay was used to determine IC50 values for inhibitors of the soluble human BACE1 catalytic domain. This assay monitored the increase of 620 nm fluorescence that resulted from BACE1 cleavage of an APPswedish APP^swe mutant peptide FRET substrate (QSY7-[…]-Europium-amide). This substrate contained an N-terminal QSY7 moiety that served as a quencher of the C-terminal Europium fluorophore (620 nm Em). In the absence of enzyme activity, 620 nm fluorescence was low in the assay and increased linearly over 3 hours in the presence of uninhibited BACE1 enzyme. Inhibition of BACE1 cleavage of the QSY7-APP^swe-Eu substrate by inhibitors was manifested as a suppression of 620 nm fluorescence.
Reactions were initiated by addition of 10 μl of 600 nM QSY7-APP^swe-Eu substrate (200 nM final) to give a final reaction volume of 30 μl in a 384 well Nunc HTRF plate. The reactions were incubated at 30° C. for 1.5 hours. The 620 nm fluorescence was then read on a Rubystar HTRF plate reader (BMG Labtechnologies) using a 50 […]s delay followed by a 400 millisecond acquisition time window. Inhibitor IC50 values were derived from non-linear regression analysis of concentration response curves.

[2] = molecular target: purified human autoBACE-2 (Homo sapiens, UniProt Q9Y5Z0); assay: BACE-2 Assay (BACE-HTRF assay); assay type: biochemical; details: calculated from IC50 using the Cheng-Prusoff equation
Description: DMSO was present at 5% final concentration in the assay. Following laser excitation of sample wells at 320 nm, the fluorescence signal at 620 nm was collected for 400 ms following a 50 μs delay on a RUBYstar HTRF plate reader (BMG Labtechnologies). […] The Ki values were calculated from the IC50 using the Cheng-Prusoff equation.

Chain of purified human autoBACE-2 (Q9Y5Z0 63-518 limits assumed): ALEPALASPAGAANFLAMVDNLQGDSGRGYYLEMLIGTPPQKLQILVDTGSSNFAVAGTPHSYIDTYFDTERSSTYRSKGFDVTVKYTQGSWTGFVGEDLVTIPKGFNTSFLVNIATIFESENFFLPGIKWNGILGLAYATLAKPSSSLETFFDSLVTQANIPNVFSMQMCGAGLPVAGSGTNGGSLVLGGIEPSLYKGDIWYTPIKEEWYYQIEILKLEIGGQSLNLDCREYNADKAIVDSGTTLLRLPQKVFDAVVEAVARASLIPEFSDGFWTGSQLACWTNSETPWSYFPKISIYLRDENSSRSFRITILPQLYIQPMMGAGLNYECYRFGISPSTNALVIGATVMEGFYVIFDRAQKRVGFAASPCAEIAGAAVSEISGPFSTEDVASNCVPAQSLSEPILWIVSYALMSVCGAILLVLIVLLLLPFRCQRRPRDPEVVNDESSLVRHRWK
Chain of soluble human BACE1 catalytic domain (P56817 75-416): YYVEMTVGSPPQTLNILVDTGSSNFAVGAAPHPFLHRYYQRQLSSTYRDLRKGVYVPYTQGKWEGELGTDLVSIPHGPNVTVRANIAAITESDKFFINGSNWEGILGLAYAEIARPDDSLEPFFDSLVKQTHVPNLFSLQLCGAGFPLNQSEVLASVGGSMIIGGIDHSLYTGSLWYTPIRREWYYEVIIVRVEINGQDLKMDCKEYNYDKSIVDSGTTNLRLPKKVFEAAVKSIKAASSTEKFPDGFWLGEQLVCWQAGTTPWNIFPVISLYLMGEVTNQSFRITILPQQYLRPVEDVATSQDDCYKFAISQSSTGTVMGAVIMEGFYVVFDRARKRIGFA

Row | SMILES | Ki [1] [nM] | Ki [2] [nM]
1 | COc1nc(N2C[C@@H]3[C@](c4ccccc4)(C2)NC(=N)N(C)S3(=O)=O)nc(C)c1F [Ex. 1] |  | 16
2 | COc1nc(N2C[C@@H]3[C@](c4ccc(F)cc4)(C2)NC(=N)N(C)S3(=O)=O)nc(C)c1F (stereo in doubt) [Ex. 2] |  | 14
3 | COc1nc(N2C[C@@H]3[C@](c4cc(F)c(F)cc4F)(C2)NC(=N)N(C)S3(=O)=O)nc(C)c1F (stereo in doubt) [Ex. 5] | 32 | 19
4 | COc1nc(N2C[C@@H]3[C@](c4ccccc4F)(C2)NC(=N)N(C)S3(=O)=O)nc(C)c1F (stereo in doubt) [Ex. 4] |  | 5.4
5 | COc1nc(N2CC3[C@](c4ccc(F)cc4F)(C2)NC(=N)N(C)S3(=O)=O)nc(C)c1F (some centres unmarked) [Ex. 6] |  | 8.5
6 | COc1nc(N2C[C@@H]3[C@](c4cc(F)ccc4F)(C2)NC(=N)N(C)S3(=O)=O)nc(C)c1F (stereo in doubt) [Ex. 3] |  | 14
7 | COCc1cc(OC)nc(N2CC3[C@](c4ccccc4F)(C2)NC(=N)N(C)S3(=O)=O)c1 (some centres unmarked) [Ex. 8] | 7 | 5
8 | COCc1cc(OC)nc(N2C[C@@H]3[C@](c4cc(F)ccc4F)(C2)NC(=N)N(C)S3(=O)=O)c1 (stereo in doubt) [Ex. 9] |  | 1.7
9 | COCc1cc(OC)nc(N2CC3[C@](c4cc(F)c(F)cc4F)(C2)NC(=N)N(C)S3(=O)=O)c1 (some centres unmarked) [Ex. 7] | 7 | 3.2

Next, values leading:

Row | Ki [1] [nM] | Ki [2] [nM] | SMILES
10 | 32 | 3.2 | CC(=O)N1CC2[C@](c3cc(NC(=O)c4ccc(F)cn4)ccc3F)(C1)NC(=N)N(C)S2(=O)=O (mixture of isomers) [Ex. 18]
11 | 82 |  | CCc1nc(N2CC3C(c4ccccc4)(C2)NC(=N)N(C)S3(=O)=O)nc(OC)c1F (racemic) [Ex. 15]
12 | 1560 |  | Cc1cccc(N2CC3C(c4ccccc4)(C2)NC(=N)N(C)S3(=O)=O)c1 (racemic) [Ex. 17]
13 | 1.2 | 1.6 | COc1nc(N2CC3[C@](c4cc(NC(=O)c5ccc(F)cn5)ccc4F)(C2)NC(=N)N(C)S3(=O)=O)nc(C)c1F (mixture of isomers) [Ex. 19]
14 | 30 |  | COc1nc(N2CC3C(c4ccccc4)(C2)NC(=N)N(C)S3(=O)=O)nc(OC)c1F (racemic) [Ex. 13]
15 | 61 |  | CCOCc1cc(OC)nc(N2CC3C(c4ccccc4)(C2)NC(=N)N(C)S3(=O)=O)c1 (racemic) [Ex. 11]
